Results published in patent publication US11285093B2, “Cosmetic uses of swertiamarin” (LUCAS MEYER COSMETICS, priority 2014, dated 2022).

Assays:
human keratinocytes = experiment: Scratch assay on monolayer culture of human keratinocytes; assay type: cell-based; settings: 72 hours
Protocol: Normal keratinocytes surgically sampled in a person were cultivated so as to obtain a monolayer culture of keratinocytes.
When confluence was attained, a lesion (“scratch”) was carried out in each cell culture so as to locally remove an equivalent amount of keratinocytes.
Each culture of keratinocytes was then incubated at 37° C. in a humid atmosphere and in the presence of 5% of CO2, in the presence of an adipocyte culture medium conditioned with swertiamarin (0.0025%; 0.005%; 0.0075% by weight), for 72 hours. The swertiamarin was introduced into the adipocyte culture medium by dilution of a stock solution at 10% in DMSO. The final amount of DMSO in the culture media is 0.15%. […]
The surface corresponding to the “lesion” (i.e. to the area where the keratinocytes were removed) was measured before (t=0) and after incubation for each cell culture from photographs obtained by optical microscopy by using the software package Image J.
The results were expressed as a percentage of re-colonized surface relative to the surface observed at t=0.
The statistical significance of the differences obtained between the groups “DMSO Control” and the groups “TGF-β Controls” was evaluated by using the t-test (***: p<0.001). […]

fibronectin = experiment: Fibronectin synthesis by normal human fibroblasts of the dermis (NHDF), ELISA; assay type: cell-based; settings: 24 h or 48 h
Protocol: The applied test was based on the synthesis of fibronectin induced by TGF-β by cells of normal human fibroblasts of the dermis (NHDF) in a monolayer culture. The culture was produced by using as a culture medium DMEM (Eurobio, CMODME70-08) containing 10% of fetal calf serum (Eurobio, CVFSV00-0U), 1% of antibiotics (penicillin/streptomycin, Eurobio, CABPES01-OU) and 1% of L-glutamine (Eurobio, CSTGLUOO-OU), at a temperature of 37° C. under 5% of CO2 and 95% of humidity.
The cells were then sown, in the presence of complete DMEM, in microplates in an amount of 2.5*10^4 cells per well and then incubated at a temperature of 37° C. under 5% of CO2 and 95% of humidity. The culture medium was replaced after 24 hours in order to bring the cells to a quiescent state.
Next, the cells were incubated in the presence of TGF-β or swertiamarin for 24 h or 48 h. The cell supernatants were then collected in order to quantify fibronectin by an ELISA test (BMS028, Ebiosciences). The cell viability level was also determined by the standard MTT test. As a control, cells were incubated under the same conditions but in the absence of TGF-β and of swertiamarin (control).
The results are expressed as a percentage of the amount of fibronectin produced per mL relative to the amount of fibronectin produced by the group of control experiments.

[1] = tested on: keratinocyte growth factor (KGF); experiment: KGF quantification by ELISA in culture medium of human adipocytes; assay type: cell-based; settings: 0.0075% by weight of swertiamarin, 15 hours, normal human adipocytes, vs DMSO control
Protocol: A stock solution at 10% by weight of swertiamarin in DMSO was prepared. This solution was then diluted in the culture medium so as to obtain a final concentration of 0.0075% by weight of swertiamarin.
A culture of normal human adipocytes, obtained from adipocytes sampled by abdominal plastic surgery in a person, was incubated for 15 hours with the culture medium containing swertiamarin. As a negative control, a culture of adipocytes incubated for 15 hours with a culture medium without any swertiamarin but containing the same amount of DMSO was used.
At the end of the incubation, the amount of KGF was quantified in each culture medium by an ELISA test. The statistical significance of the differences between the “control” groups and the “test groups” was evaluated by variance analysis (One way Anova) followed by the Holm Sida test (p*<0.05).

Protocol for human skin explants: 21 skin explants with a diameter of 10 mm were prepared from these samples, among which 12 are skin explants without any adipose tissue (epidermis+dermis explant) and 9 are full skin explants (epidermis+dermis+hypodermis). The explants are maintained alive in a BEM medium at 37° C. in the presence of a humid atmosphere with 5% of CO2. The skin explants were distributed into three groups: • Group 1: a cream containing swertiamarin (SWT) in an amount of 0.025% was applied at days 0, 1, 2, 3, 6 and 7 of the incubation, to the surface of the skin explants by means of a spatula (1 μl in the morning and 1 μl in the evening), • Group 2: a placebo cream (free of swertiamarin) was applied on days 0, 1, 2, 3, 6 and 7 of the incubation, to the surface of the skin explants by means of a spatula (1 μl in the mornings and 1 μl in the evenings), • Group 3: this control group was maintained alive without any treatment (without application of a placebo cream or of cream based on swertiamarin).
On day 9, the skin explants are recovered, chemically bound in a formol solution for 24 hours, dehydrated, impregnated with paraffin and then infiltrated with resin according to the SOP H-53 protocol. Fine cuts are then made in each explant and observed by optical microscopy after staining.

Substance | cell re-colonization (re-colonized surface) vs DMSO Control (human keratinocytes; TGF-β 10 ng/ml, p<0.001) | production of fibronectin vs control (fibronectin; TGF-β) | increase of the surface area re-colonized by the keratinocytes vs DMSO Control (human keratinocytes; adipocyte culture medium conditioned with 0.0025% swertiamarin) | morphological alteration of treated skin explants (human skin explants) | increase of the amount of fibronectin vs control (fibronectin; 0.005% swertiamarin) | increase in the average amount of KGF in the culture medium [1]
TGF-β [reference compound] | +124.1% | +64% | – | – | – | –
Swertiamarin | – | – | +64.6% | do not exhibit any notable morphological alteration | more than 171% | about 16.4%
